pEC50, pIC50, pKd, pKi: −log10 of the molar value. Each block holds one compound with its values, some of them ahead of it. Peptide text beside a SMILES is read from it.
How the values were obtained:
[1] = target: T1, Protein Mdm4 (Homo sapiens, UniProt O15151); assay: Inhibition of human MDM4 by ELISA assay
T1 sequence (O15151 whole entry): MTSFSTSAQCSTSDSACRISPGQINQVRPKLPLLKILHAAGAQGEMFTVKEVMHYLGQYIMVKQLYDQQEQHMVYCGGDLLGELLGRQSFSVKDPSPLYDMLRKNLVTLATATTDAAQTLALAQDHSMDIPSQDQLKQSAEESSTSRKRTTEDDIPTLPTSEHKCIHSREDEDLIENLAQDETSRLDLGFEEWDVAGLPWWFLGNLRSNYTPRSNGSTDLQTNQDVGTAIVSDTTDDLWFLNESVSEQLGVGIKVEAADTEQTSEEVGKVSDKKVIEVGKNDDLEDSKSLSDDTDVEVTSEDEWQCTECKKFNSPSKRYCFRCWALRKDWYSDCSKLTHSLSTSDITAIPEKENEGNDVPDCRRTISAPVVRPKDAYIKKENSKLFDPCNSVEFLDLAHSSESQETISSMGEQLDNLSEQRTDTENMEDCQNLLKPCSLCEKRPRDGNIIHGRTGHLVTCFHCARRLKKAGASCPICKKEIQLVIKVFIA

[2] = target: T2, Tumour suppressor protein p53/Mdm4 (Homo sapiens, UniProt O15151+P04637); assay: Inhibition of human MDM4/p53 interaction by FP assay; format: protein assay
T2 sequence (P04637 whole entry, one chain of several): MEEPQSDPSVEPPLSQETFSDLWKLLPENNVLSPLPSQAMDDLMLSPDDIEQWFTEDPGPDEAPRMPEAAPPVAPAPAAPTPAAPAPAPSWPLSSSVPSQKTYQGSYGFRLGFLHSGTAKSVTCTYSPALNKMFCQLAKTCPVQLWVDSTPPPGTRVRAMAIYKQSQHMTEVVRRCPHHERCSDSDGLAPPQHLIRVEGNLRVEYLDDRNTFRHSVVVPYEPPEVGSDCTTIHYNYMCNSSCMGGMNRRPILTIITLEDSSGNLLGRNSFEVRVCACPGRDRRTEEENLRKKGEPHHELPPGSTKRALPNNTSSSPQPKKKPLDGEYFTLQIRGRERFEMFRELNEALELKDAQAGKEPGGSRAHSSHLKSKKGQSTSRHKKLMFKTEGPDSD

[3] = target: T3, E3 ubiquitin-protein ligase Mdm2 (Homo sapiens, UniProt Q00987); assay: Inhibition of human MDM2 by TR-FRET assay
T3 sequence (Q00987 whole entry): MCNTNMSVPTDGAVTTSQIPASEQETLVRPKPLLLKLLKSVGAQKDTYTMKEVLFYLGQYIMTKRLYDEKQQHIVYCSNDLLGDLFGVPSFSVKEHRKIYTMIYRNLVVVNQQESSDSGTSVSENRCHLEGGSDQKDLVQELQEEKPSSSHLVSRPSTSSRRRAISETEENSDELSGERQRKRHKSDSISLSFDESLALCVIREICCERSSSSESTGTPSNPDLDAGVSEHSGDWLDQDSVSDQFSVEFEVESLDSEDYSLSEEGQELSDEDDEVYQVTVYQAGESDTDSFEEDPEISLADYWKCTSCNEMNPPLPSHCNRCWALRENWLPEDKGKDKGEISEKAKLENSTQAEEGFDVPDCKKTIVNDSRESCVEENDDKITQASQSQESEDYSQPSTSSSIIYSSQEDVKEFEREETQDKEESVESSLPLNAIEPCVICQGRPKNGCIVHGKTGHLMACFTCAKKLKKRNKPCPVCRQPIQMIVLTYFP

[4] = tested on: MCF7; assay: Anticancer activity against […] relative to contol; format: functional; details: read-out: TGI
[5] = tested on: MCF7; assay: Anticancer activity against human MCF7 cells assessed as cell viability at 30 mg/kg by MTT assay relative to contol; details: MCF7, read-out: TGI
[6] = target: T1, Protein Mdm4; assay: Inhibition of human his-tagged MDM4 assessed as dissociation constant by ITC assay
[7] = target: T1, Protein Mdm4; assay: Binding affinity to human MDM4 assessed as inhibition constant
[8] = target: T2, Tumour suppressor protein p53/Mdm4; assay: Inhibition of human MDM4/p53 interaction by TR-FRET assay; format: protein assay
[9] = target: T3, E3 ubiquitin-protein ligase Mdm2; assay: Binding affinity to human MDM2 assessed as dissociation constant
[10] = target: T2, Tumour suppressor protein p53/Mdm4; assay: Inhibition of human MDM4/p53 interaction by SPR analysis; format: protein assay
[11] = target: T1, Protein Mdm4; assay: Inhibition of human MDM4 by TR-FRET assay
[12] = target: T1, Protein Mdm4; assay: Inhibition of MDM4 assessed as dissociation constant
[13] = target: T1, Protein Mdm4; assay: Inhibition of human MDM4
[14] = target: T3, E3 ubiquitin-protein ligase Mdm2; assay: Inhibition of human MDM2

Compound: H-ETFEHWWSQLLS-OH
pIC50 [1]: 6.96

Compound: Cc1cc(Cl)ccc1NCc1ccc(CN(C=O)C(C(=O)NC(C)(C)C)c2c(C(=O)O)[nH]c3cc(Cl)ccc23)cc1 (stereo unspecified)
pKi [2]: 5.43

Compound: COc1cccc2c(C(=O)N[C@H]3CCN(c4ccc(C)cc4)C3)c[nH]c12
pIC50 [3]: < 4.30

Compound: CCOc1cc(C(C)(C)C)ccc1C1=N[C@@](C)(c2ccc(Cl)cc2)[C@@](C)(c2ccc(Cl)cc2)N1C(=O)N1CCN(CCCS(C)(=O)=O)CC1 [RO-5045337]
inhibition in vivo [4]: 61%

Compound: CC(=O)N[C@@H](CC(C)C)C(=O)N[C@H](C(=O)N[C@@H](Cc1ccccc1)C(=O)N[C@]1(C)CCCCCC/C=C/CCC[C@@](C)(C(=O)N[C@@H](C)C(=O)N[C@@H](C)C(=O)N[C@@H](C)C(=O)N[C@@H](C)C(=O)N[C@H](C)C(N)=O)NC(=O)[C@H](CC(C)C)NC(=O)[C@H](CCC(N)=O)NC(=O)[C@H](C)NC(=O)[C@H](Cc2c[nH]c3ccccc23)NC(=O)[C@H](Cc2ccc(O)cc2)NC(=O)[C@H](C)NC1=O)[C@@H](C)O
inhibition in vivo at 30 mg/kg [5]: 61%

Compound: CC(C)(C)Oc1cc(C(=O)CC(N)=O)ccc1C1=N[C@@H](c2ccc(C(=O)O)cc2)[C@@H](c2c[nH]c3ccccc23)N1C(=O)N1CCNC(=O)C1
pKd [6]: 7.57

Compound: C[C@@H](c1cccc(Cl)c1)n1cnc(-c2ccccc2)c1-c1c(C(=O)NCCN2CCN(C3CCCCC3)CC2)[nH]c2cc(Cl)ccc12
pIC50 [11]: 6.84

Compound: COc1cc(C(=O)O)ccc1NC(=O)[C@@H]1N[C@@H](CC(C)(C)C)[C@](C#N)(c2ccc(Cl)cc2F)[C@H]1c1cccc(Cl)c1F [IDASANUTLIN]
pKd [12]: > 7.00

Compound: COOc1cc(/C=C2\C(=O)N(c3ccccc3)N=C2C)cc(Cl)c1OCC(=O)OC
pEC50 [13]: 5.64 | pEC50 [14]: 4.59

Next, values leading:

pIC50 [7]: 5.52
Compound: COc1ncc(-c2nc3c(n2C(C)C)C(c2ccc(Cl)cc2)N(c2cc(Cl)cn(C)c2=O)C3=O)c(OC)n1 (stereo unspecified)

pIC50 [8]: 6.24
Compound: COc1ncc(-c2nc3c(n2C(C)C)[C@H](c2ccc(C#N)cc2)N([C@@H](C)c2cccc(Cl)c2)C3=O)c(OC)n1

pKi [9]: 5.26
Compound: O=C(CN(Cc1ccc(Cl)cc1)C(=O)c1cc2ccccc2[nH]1)NC1CCCCC1

pIC50 [10]: 7.94
Compound: CC(C)C[C@H](NC(=O)[C@H](CS)NC(=O)[C@H](CCCNC(=N)N)NC(=O)[C@H](Cc1c[nH]c2ccccc12)NC(=O)[C@H](Cc1ccc(O)cc1)NC(=O)[C@H](CS)NC(=O)[C@H](CC(C)C)NC(=O)[C@H](Cc1ccccc1)NC(=O)[C@@H](NC(=O)[C@H](CCC(=O)O)NC(=O)[C@@H]1CCCN1C(=O)[C@H](C)NC(=O)[C@H](CCCCN)NC(=O)[C@H](CS)NC(=O)[C@H](CC(N)=O)NC(=O)[C@@H](N)CS)[C@@H](C)O)C(=O)N[C@@H](CCC(N)=O)C(=O)N[C@@H](Cc1c[nH]cn1)C(N)=O (H-CNCKAPETFLCYWRCLQH-NH2)

pIC50 [11]: 7.77
Compound: C[C@@H](c1cccc(Cl)c1)n1cnc(-c2ccccc2)c1-c1c(C(=O)Nc2cc(C(=O)O)ccc2N2CCC(N3CCCOC3=O)CC2)[nH]c2cc(Cl)ccc12

pIC50 [8]: 5.89
Compound: COc1nc(N(C)C)ncc1-c1nc2c(n1C(C)C)[C@H](c1ccc(C#N)cc1)N(c1cc(Cl)cn(C)c1=O)C2=O
